Source: BindingDB's records for patent US12552798 (Henan Zhiwei Biomedicine Co., 2026)

Key:
Test in all cases: BTK, BMX, EGFR and ITK Inhibitory Assay
[1] = molecular target: Tyrosine-protein kinase BTK (Homo sapiens, UniProt Q06187)
Method: (§1) Kinase inhibitory activities of compounds were evaluated using the Enzyme-linked immunosorbent assay (ELISA). The kinase enzyme of BTK, BMX, EGFR and ITK were purchased from Carna Bioscience (Kobe, Japan). A total of 10 ng/mL antiphosphotyrosine (PY713) antibody (abcam, Cambridge Science Park, UK) was precoated in 96-well ELISA plates. The kinase enzymes in each reaction well were set to BTK (101.25 ng/mL), BMX (90 ng/mL), EGFR (90 ng/mL) or ITK (120 ng/mL) and incubated with indicated compounds in 1× reaction buffer (50 mmol/L HEPES pH 7.4, 20 mmol/L MgCl2, 0.1 mmol/L MnCl2, 1 mmol/L DTT) containing 20 μmol/L (the final concentration of substrate in ITK reaction was 30 μmol/L) substrate (NH2-ETVYSEVRK-biotin) at 25° C. for 1 h. Then, a total of 3 μmol/L ATP was added and the reaction was continued for 2 hrs. The products of reaction were transferred into 96-well ELISA plates containing antibody and incubated at 25° C. for 30 min. After incubation, the wells were washed with PBS and then incubated with horseradish peroxidase […]-conjugated streptavidin. The wells were visualized using 3,3′,5,5′-tetramethylbenzidine (TMB), and chromogenic reaction was ended with 2 mol/L H2SO4, the absorbance was read with a multimode plate reader (PerkinElmer, USA) at 450 nm. IC50 values and curve fits were obtained using Prism (GraphPad Software).

[2] = molecular target: T1, Cytoplasmic tyrosine-protein kinase BMX (Homo sapiens, UniProt P51813)
T1 sequence (P51813 whole entry): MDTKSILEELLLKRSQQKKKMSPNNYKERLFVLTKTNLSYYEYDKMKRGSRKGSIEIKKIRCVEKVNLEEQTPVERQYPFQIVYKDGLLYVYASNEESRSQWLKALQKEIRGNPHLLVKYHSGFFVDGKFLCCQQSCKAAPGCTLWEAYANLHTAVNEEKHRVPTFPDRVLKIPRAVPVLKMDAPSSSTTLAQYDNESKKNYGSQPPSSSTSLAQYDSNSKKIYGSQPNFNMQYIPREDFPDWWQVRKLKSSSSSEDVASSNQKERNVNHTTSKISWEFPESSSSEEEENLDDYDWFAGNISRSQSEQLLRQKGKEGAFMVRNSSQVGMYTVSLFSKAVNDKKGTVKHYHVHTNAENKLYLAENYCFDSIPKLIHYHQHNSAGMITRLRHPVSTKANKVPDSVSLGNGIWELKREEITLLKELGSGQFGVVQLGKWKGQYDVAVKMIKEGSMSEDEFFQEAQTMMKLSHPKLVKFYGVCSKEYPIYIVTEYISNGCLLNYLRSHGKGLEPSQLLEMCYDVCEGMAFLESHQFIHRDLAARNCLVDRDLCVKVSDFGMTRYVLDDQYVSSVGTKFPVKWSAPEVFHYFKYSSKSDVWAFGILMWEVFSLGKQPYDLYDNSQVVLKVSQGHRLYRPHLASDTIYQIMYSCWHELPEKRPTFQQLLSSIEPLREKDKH
Method: as §1

[3] = molecular target: Epidermal growth factor receptor (Homo sapiens, UniProt P00533)
Method: as §1

[4] = molecular target: T2, Tyrosine-protein kinase ITK/TSK (Homo sapiens, UniProt Q08881)
T2 sequence (Q08881 whole entry): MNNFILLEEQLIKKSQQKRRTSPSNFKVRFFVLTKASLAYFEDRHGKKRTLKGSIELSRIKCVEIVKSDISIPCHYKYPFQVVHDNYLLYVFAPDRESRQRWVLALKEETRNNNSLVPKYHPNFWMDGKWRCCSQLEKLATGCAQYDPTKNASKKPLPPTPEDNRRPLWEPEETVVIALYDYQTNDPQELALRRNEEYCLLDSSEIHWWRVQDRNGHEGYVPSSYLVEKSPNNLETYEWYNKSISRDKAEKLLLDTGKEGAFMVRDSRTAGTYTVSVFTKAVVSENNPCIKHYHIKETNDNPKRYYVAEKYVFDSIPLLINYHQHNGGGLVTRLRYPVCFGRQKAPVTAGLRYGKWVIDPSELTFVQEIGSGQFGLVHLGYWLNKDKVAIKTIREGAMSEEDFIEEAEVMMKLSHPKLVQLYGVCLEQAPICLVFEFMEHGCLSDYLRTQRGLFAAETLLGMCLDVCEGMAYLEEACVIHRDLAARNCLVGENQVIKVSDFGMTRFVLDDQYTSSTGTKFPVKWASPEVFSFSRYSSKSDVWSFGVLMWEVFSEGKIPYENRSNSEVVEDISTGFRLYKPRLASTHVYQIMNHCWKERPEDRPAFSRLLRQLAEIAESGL
Method: as §1

Sequence of Tyrosine-protein kinase BTK (Q06187 whole entry): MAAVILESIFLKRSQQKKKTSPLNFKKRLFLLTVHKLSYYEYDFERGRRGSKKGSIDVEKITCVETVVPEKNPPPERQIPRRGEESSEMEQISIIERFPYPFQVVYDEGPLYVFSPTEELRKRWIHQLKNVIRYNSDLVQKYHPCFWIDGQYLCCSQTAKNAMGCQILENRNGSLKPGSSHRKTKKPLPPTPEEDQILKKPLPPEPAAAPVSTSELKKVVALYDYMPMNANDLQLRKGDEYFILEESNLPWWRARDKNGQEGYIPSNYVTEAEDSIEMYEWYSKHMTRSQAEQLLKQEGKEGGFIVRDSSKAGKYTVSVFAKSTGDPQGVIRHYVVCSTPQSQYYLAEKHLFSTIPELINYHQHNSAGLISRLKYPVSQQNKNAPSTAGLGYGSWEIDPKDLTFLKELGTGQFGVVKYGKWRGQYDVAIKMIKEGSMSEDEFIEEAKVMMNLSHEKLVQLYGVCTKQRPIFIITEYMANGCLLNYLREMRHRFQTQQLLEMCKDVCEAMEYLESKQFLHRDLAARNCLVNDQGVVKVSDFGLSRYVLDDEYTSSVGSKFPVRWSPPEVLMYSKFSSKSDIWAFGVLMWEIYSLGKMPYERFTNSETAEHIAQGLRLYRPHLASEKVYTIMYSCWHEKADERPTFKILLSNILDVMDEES
Sequence of Epidermal growth factor receptor (P00533 whole entry): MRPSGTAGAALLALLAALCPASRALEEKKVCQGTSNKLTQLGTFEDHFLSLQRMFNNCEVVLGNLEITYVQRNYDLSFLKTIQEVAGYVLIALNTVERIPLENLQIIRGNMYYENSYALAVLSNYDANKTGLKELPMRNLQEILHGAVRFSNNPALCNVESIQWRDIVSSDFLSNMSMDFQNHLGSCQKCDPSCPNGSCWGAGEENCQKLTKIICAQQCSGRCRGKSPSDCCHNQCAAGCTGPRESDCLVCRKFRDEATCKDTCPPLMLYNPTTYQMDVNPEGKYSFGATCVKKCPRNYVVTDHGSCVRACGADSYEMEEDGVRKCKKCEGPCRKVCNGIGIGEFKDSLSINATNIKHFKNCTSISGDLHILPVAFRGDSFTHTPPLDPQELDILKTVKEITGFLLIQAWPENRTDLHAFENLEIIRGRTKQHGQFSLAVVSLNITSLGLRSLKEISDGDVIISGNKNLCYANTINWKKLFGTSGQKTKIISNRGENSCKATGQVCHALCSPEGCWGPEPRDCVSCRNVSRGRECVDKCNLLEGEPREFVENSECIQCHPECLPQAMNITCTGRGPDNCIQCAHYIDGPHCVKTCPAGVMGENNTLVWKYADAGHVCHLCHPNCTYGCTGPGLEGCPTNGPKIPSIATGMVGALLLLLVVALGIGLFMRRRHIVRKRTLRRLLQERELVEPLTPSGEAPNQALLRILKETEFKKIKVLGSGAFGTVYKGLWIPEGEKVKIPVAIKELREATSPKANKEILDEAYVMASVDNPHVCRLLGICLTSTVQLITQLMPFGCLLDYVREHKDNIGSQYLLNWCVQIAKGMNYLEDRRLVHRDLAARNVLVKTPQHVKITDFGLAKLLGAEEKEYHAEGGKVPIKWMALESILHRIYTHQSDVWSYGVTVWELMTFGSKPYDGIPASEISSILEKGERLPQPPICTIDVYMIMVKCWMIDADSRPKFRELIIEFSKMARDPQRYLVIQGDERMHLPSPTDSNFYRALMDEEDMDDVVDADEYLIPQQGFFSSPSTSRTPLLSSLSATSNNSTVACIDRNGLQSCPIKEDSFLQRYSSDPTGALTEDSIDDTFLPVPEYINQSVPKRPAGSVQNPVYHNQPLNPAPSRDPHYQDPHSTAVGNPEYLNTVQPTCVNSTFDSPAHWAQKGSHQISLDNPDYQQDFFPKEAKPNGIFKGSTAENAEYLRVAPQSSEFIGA

IC50 [1] | IC50 [2] | IC50 [3] | IC50 [4] | SMILES
230 nM | – | – | – | CC#CC(=O)N1CC(C2CCNn3c2nc(-c2ccc(Oc4ccccc4)cc2)c3C(N)=O)C1 (stereo not given) [US12552798, Example 19]
8 nM | 70.3 nM | 3240 nM | 8650 nM | NC(=O)c1c(-c2ccc(Oc3ccccc3)cc2)nc2n1NCCC2C1CN(C(=O)/C=C/C(F)(F)F)C1 (stereo not given) [US12552798, Example 20]
